SMILES strings stand for the structures. Changes are numbered by the printed parent chain. The source made the active and inactive calls. The calls are words filed in the database; no cut-off is given here. Numbered stars: 1 amine (or outer) side, 2 acyl side, 3 side chain; on linkers, the order of the positions; unused ones are H or OH. Bridge positions count the residues as written; N and C are the ends. Square brackets hold non-standard residues; d marks the D form. Peptide text beside a SMILES is read from it. I, II: the chains in the order shown. * marks the point of attachment. C14 diacid = O=C(O)CCCCCCCCCCCCC(=O)*; Suberoyl = O=C(CCCCCCC(=O)[*:2])[*:1]; Mpa = O=C(O)CCS

The target of assay [1] is T1, Oxytocin receptor (Homo sapiens) (UniProt P30559).
T1 sequence (whole entry): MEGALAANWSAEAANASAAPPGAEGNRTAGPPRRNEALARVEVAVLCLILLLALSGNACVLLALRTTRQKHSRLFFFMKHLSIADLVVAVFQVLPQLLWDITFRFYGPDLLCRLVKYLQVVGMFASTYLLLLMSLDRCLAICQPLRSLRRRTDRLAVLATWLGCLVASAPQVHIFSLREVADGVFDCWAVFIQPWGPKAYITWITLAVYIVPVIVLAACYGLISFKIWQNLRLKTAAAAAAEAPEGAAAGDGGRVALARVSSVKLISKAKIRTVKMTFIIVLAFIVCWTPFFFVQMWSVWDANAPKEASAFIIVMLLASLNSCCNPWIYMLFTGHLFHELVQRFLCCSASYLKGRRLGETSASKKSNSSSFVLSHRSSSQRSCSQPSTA
The assay can be described thus: Displacement of [125I]-OVTA from human oxytocin receptor expressed in COS7 cell membrane. It is filed as cell membranes. (In general: Displacement assays read how much labelled ligand stays bound in the presence of the test substance.)

Assay [2] concerns the target T1, Oxytocin receptor (Homo sapiens). Kind of assay: Ratio of EC50 for human oxytocin receptor low affinity site expressed in HEK293 cells coexpressing Rluc8-tagged Galphaq, N-terminal GFP-tagged Ggamma2 and Gbeta1 protein to Ki for human oxytocin receptor low affinity site expressed in COS7 cell membrane. It is filed as cell-based.
Assay [3] has as its system Danio rerio. The assay can be described thus: Effect on social behavior in zebra fish assessed as increase in time spent swimming parallel to nacre mutant fish over time spent shoaling close to wild type fish at 0.2 ng/kg, im. It counts as functional, organism-based.
In assay [4] the target is T2, Oxytocin receptor (Homo sapiens, UniProt P30559).
T2 sequence (P30559 whole entry): T1 sequence (whole entry)
The assay can be described thus: Agonist activity at human oxytocin receptor low affinity site expressed in HEK293 cells coexpressing Rluc8-tagged Galphaq, N-terminal GFP-tagged Ggamma2 and Gbeta1 protein incubated for 2 mins by Gq protein activation based BRET assay. It counts as cell-based. A general note: In BRET a luciferase serves as donor, and the signal depends on an acceptor being close.

The target of assay [5] is T2, Oxytocin receptor. The assay can be described thus: Agonist activity at human oxytocin receptor high affinity site expressed in HEK293 cells coexpressing Rluc8-tagged Galphaq, N-terminal GFP-tagged Ggamma2 and Gbeta1 protein incubated for 2 mins in presence of TMH5-TAT peptide by Gq protein activation based BRET assay. It counts as cell-based.
The species named for assay [6] is Danio rerio. Kind of assay: Potency index, ratio of isotocin dose to compound dose for effect on shoaling behavior in zebra fish. It is filed as functional.
In assay [7] the test system is Mus musculus. Kind of assay: Effect on social behavior in OXTR+/- DBA/2J mouse assessed as increase in time spent exploring stranger mouse over time spent exploring empty cage at 0.005 ng/mouse, icv measured for 10 mins by three chamber method. It counts as functional, organism-based.
The target of assay [8] is T2, Oxytocin receptor. Kind of assay: (§1) Agonist activity at human oxytocin receptor expressed in HEK293 cells coexpressing Rluc8-tagged Galphaq, N-terminal GFP-tagged Ggamma2 and Gbeta1 protein incubated for 2 mins in presence of TMH1-TAT peptide by Gq protein activation based BRET assay. It is filed as cell-based.
Assay [9] has as its target T1, Oxytocin receptor (Homo sapiens). The description is as §1. It is filed as cell-based. On the set-up: unit not given here.
Assay [10] has the same target. Kind of assay: (§2) Agonist activity at human oxytocin receptor expressed in HEK293 cells coexpressing Rluc8-tagged Galphaq, N-terminal GFP-tagged Ggamma2 and Gbeta1 protein incubated for 2 mins in presence of TMH5-TAT peptide by Gq protein activation based BRET assay. It is filed as cell-based. Set-up: unit not given here.
The target is the same in assay [11]. Kind of assay: Ratio of EC50 for human oxytocin receptor high affinity site expressed in HEK293 cells coexpressing Rluc8-tagged Galphaq, N-terminal GFP-tagged Ggamma2 and Gbeta1 protein to Ki for human oxytocin receptor high affinity site expressed in COS7 cell membrane. It counts as cell-based.
Assay [12] has as its target T2, Oxytocin receptor. Kind of assay: Agonist activity at human oxytocin receptor low affinity site expressed in HEK293 cells coexpressing Rluc8-tagged Galphaq, N-terminal GFP-tagged Ggamma2 and Gbeta1 protein incubated for 2 mins in presence of TMH5-TAT peptide by Gq protein activation based BRET assay. It counts as cell-based.
Assay [13] concerns T3, Oxytocin receptor (Homo sapiens), P30559 [V43A,C47A].
T3 sequence (whole entry): T1 sequence (whole entry) with V43A, C47A
The assay can be described thus: (§3) Agonist activity at human oxytocin receptor V43A/C47A double mutant expressed in HEK293 cells coexpressing Rluc8-tagged Galphaq, N-terminal GFP-tagged Ggamma2 and Gbeta1 protein incubated for 2 mins by Gq protein activation based BRET assay. It is filed as cell-based. On the set-up: unit not given here.

Assay [14] concerns the target T4, Oxytocin receptor (Homo sapiens, UniProt P30559, C47A/V43A). The description is as §3. It counts as cell-based.
In assay [15] the target is T1, Oxytocin receptor (Homo sapiens). Kind of assay: (§4) Agonist activity at human oxytocin receptor expressed in HEK293 cells coexpressing Rluc8-tagged Galphaq, N-terminal GFP-tagged Ggamma2 and Gbeta1 protein incubated for 2 mins by Gq protein activation based BRET assay. Set-up: unit not given here. It counts as cell-based.
The species entered for assay [16] is Mus musculus. The assay can be described thus: Potency index, ratio of oxytocin dose to compound dose for OXTR+/- DBA/2J mouse assessed as increase in time spent exploring stranger mouse over time spent exploring empty cage. It is filed as functional.
Assay [17] relates to T5, Oxytocin receptor (Homo sapiens), P30559 [C47A].
T5 sequence (whole entry): T1 sequence (whole entry) with C47A
Kind of assay: (§5) Agonist activity at human oxytocin receptor C47A mutant expressed in HEK293 cells coexpressing Rluc8-tagged Galphaq, N-terminal GFP-tagged Ggamma2 and Gbeta1 protein incubated for 2 mins by Gq protein activation based BRET assay. It counts as cell-based. On the set-up: unit not given here.

The target in assay [18] is T6, Oxytocin receptor (Homo sapiens, UniProt P30559, C47A). The description is as §5. It is filed as cell-based.
T6 sequence (P30559 whole entry C47A): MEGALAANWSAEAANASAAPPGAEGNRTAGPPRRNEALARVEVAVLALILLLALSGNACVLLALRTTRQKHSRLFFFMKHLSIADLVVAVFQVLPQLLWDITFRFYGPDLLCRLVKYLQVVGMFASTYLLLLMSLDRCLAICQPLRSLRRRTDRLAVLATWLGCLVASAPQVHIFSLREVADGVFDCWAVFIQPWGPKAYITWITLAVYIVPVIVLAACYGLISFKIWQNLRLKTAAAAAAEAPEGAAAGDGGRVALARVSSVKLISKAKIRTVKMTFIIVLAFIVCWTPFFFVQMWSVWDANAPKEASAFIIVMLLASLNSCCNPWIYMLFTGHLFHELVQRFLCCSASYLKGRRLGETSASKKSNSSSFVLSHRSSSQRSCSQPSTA
The target of assay [19] is T2, Oxytocin receptor. The assay can be described thus: Agonist activity at human oxytocin receptor high affinity site expressed in HEK293 cells coexpressing Rluc8-tagged Galphaq, N-terminal GFP-tagged Ggamma2 and Gbeta1 protein incubated for 2 mins by Gq protein activation based BRET assay. It counts as cell-based.
Assay [20] deals with T6, Oxytocin receptor. The assay can be described thus: Agonist activity at human oxytocin receptor C47A mutant high affinity site expressed in HEK293 cells coexpressing Rluc8-tagged Galphaq, N-terminal GFP-tagged Ggamma2 and Gbeta1 protein incubated for 2 mins by Gq protein activation based BRET assay. It is filed as cell-based.
Assay [21] concerns the target T2, Oxytocin receptor. Described as §2. It counts as cell-based.
The target of assay [22] is T6, Oxytocin receptor. The assay can be described thus: Agonist activity at human oxytocin receptor C47A mutant low affinity site expressed in HEK293 cells coexpressing Rluc8-tagged Galphaq, N-terminal GFP-tagged Ggamma2 and Gbeta1 protein incubated for 2 mins by Gq protein activation based BRET assay. It counts as cell-based.
For assay [23], the target named is T2, Oxytocin receptor. The description is as §4. It is filed as cell-based.
For assay [24], the target named is T4, Oxytocin receptor. Kind of assay: Agonist activity at human oxytocin receptor V43A/C47A double mutant high affinity site expressed in HEK293 cells coexpressing Rluc8-tagged Galphaq, N-terminal GFP-tagged Ggamma2 and Gbeta1 protein incubated for 2 mins by Gq protein activation based BRET assay. It counts as cell-based.
Assay [25] has as its target T4, Oxytocin receptor. Kind of assay: Agonist activity at human oxytocin receptor V43A/C47A double mutant low affinity site expressed in HEK293 cells coexpressing Rluc8-tagged Galphaq, N-terminal GFP-tagged Ggamma2 and Gbeta1 protein incubated for 2 mins by Gq protein activation based BRET assay. It is filed as cell-based.

T4 sequence (P30559 whole entry V43A/C47A): as the sequence (P30559 whole entry C47A) above, with V43A counted along it

As a reminder, the EC50 is the concentration giving half of the maximal effect. `CC[C@H](C)[C@@H]1NC(=O)[C@H](Cc2ccc(O)cc2)NC(=O)CCSSC[C@@H](C(=O)N2CCC[C@H]2C(=O)N[C@@H](CCCCNC(=O)CCCCCCC(=O)NCCCC[C@H](NC(=O)[C@@H]2CCCN2C(=O)[C@@H]2CSSCCC(=O)N[C@@H](Cc3ccc(O)cc3)C(=O)N[C@@H]([C@@H](C)CC)C(=O)N[C@@H](CCC(N)=O)C(=O)N[C@@H](CC(N)=O)C(=O)N2)C(=O)NCC(N)=O)C(=O)NCC(N)=O)NC(=O)[C@H](CC(N)=O)NC(=O)[C@H](CCC(N)=O)NC1=O` (I: [Mpa]YIQNCPKG-NH2 / II: [Mpa]YIQNCPKG-NH2; disulfide I:1-I:6, II:1-II:6; linker I:8-II:8 via Suberoyl) yielded a KiH in assay [1] of 0.08 pM. This compound also registered a KiL in assay [1] of 1.24 nM. Also, the Ratio is 10 in assay [2], 40 in the assay filed under Danio rerio [6], 10 in assay [11] and 100 in the assay filed under Mus musculus [16]. For the same compound, the result in the assay with Danio rerio [3] and with Mus musculus [7] was Active. Also, the EC50 on Oxytocin receptor [4] turned out to be 67.3 nM; at Oxytocin receptor [5] it was 0.0118 nM; at Oxytocin receptor [8], 19.3 nM; on Oxytocin receptor [12] it was 33.4 nM; at Oxytocin receptor [14], 117 nM; on Oxytocin receptor [18] it was 40.5 nM. The compound further showed an EC50 at Oxytocin receptor [19] of 0.0008 nM. In addition, the Emax in assay [9] is -0.16; in assay [10], -0.15; in assay [13], -0.1; in assay [15] it was -0.11; in [17], -0.14.
`CC[C@H](C)[C@@H]1NC(=O)[C@H](Cc2ccc(O)cc2)NC(=O)CCSSC[C@@H](C(=O)N2CCC[C@H]2C(=O)N[C@@H](CCCCNC(=O)CCCCCCCCCCCCC(=O)NCCCC[C@H](NC(=O)[C@@H]2CCCN2C(=O)[C@@H]2CSSCCC(=O)N[C@@H](Cc3ccc(O)cc3)C(=O)N[C@@H]([C@@H](C)CC)C(=O)N[C@@H](CCC(N)=O)C(=O)N[C@@H](CC(N)=O)C(=O)N2)C(=O)NCC(N)=O)C(=O)NCC(N)=O)NC(=O)[C@H](CC(N)=O)NC(=O)[C@H](CCC(N)=O)NC1=O` (I: [Mpa]YIQNCPKG-NH2 / II: [Mpa]YIQNCPKG-NH2; disulfide I:1-I:6, II:1-II:6; linker I:8-II:8 via C14 diacid): the EC50 at Oxytocin receptor [20] came out at 0.0014 nM; on Oxytocin receptor [8], 15.4 nM; at Oxytocin receptor [21], 59 nM; on Oxytocin receptor [22], 301 nM; on Oxytocin receptor [23], 29.4 nM; at Oxytocin receptor [24], 0.011 nM. For the same compound, at Oxytocin receptor [25], the EC50 was 867 nM. Moreover, the Emax in assay [9] is -0.144; in assay [10], -0.145; in assay [13], -0.11; in assay [15] it was -0.1; in [17], -0.11.

These data come from ChEMBL document CHEMBL4477229, “Design and Characterization of Superpotent Bivalent Ligands Targeting Oxytocin Receptor Dimers via a Channel-Like Structure” (J Med Chem, 2016).
